The values below come from US20080248097A1, “POLYMERIC MICELLES FOR COMBINATION DRUG DELIVERY” (priority 2007, published 2008).

Series [1] concerns tumor. Description: Cancer treatment efficacy and toxicity in tumor-bearing mice (Table 2, therapeutic window). To be noted: for Complete Cure / Toxic Death: mice; for Complete Cure: cured/animals; for Toxic Death: deaths/animals.
Description: (§1) Cancer treatment efficacy of the pH-sensitive micelles was evaluated by comparing the therapeutic windows of small molecule drugs (doxorubicin) and the doxorubicin-conjugated micelles.
(§2) The CDF1 mice (female, n=6), when the tumor volume reached about 100 mm^3, were injected with DOX or the micelles in a volume of 0.1 mL/10 g body weight for the experiments. The dose was either 10 mg/kg for DOX or the micelles (DOX equivalent).
(§3) Cancer treatment efficacy of the pH-sensitive micelles was evaluated by comparing the therapeutic windows of small molecule drugs (doxorubicin) and the doxorubicin-conjugated micelles. Therapeutic windows were determined based on the ratio of ED50 to TD.
The subject of series [2] is tumor. The following applies: mouse, in vivo.
Description: as §1, §2, §3
The conditions of series [3]: DMEM with 10% fetal bovine serum, 24 hours, 100 μg mL−1 ADR equivalent, excitation 485 nm.
Series [4] deals with human small cell lung cancer SBC-3 cells. The series can be described thus: Confocal laser scanning microscopy of intracellular localization. The series is classed as cell-based. To be noted: 10 μg mL−1. As for the experimental part:
FIG. 4 illustrates CLSM images of human small cell lung cancer SBC-3 cells incubated with ADR and PEG-p(Asp-Hyd-ADR) micelles (10 μg mL^−1). […] A series of optical sections was stacked (Z-stacked) by moving the focal plane of the instrument step-by-step through the depth of the cell.

The nature of series [5]: Biodistribution and plasma levels in tumor-bearing mice. To be noted: after 10 hours; 10 mg/kg, CDF1 mice.
Description: as §2
The test system of series [6] is human small cell lung cancer SBC-3 cells. The following applies: different ADR concentrations and exposure times. An excerpt: As a system releasing bioactive molecules, the micelles are required to maintain the ability of the loaded ADR to suppresses cell growth by binding with DNA strands in the cell nucleus.

Like-named read-outs stand apart in the source and are kept apart here.

For `COc1cccc2c1C(=O)c1c(O)c3c(c(O)c1C2=O)C[C@@](O)(C(=O)CO)C[C@@H]3O[C@H]1C[C@H](N)[C@H](O)[C@H](C)O1` [DOX, doxorubicin], the entries for the “Complete Cure” value in the series with tumor [1] (dose 5 mg/kg) and with tumor [1] (dose 10 mg/kg) were 0/6 and 1/6, respectively. Moreover, the “Toxic Death” value in the series on tumor [1] (dose 5 mg/kg) and in the series on tumor [1] (dose 10 mg/kg) was 0/6 each time. Moreover, the “Weight change on day 30 (%)” value with tumor [2] (5 mg/kg) was −13.35 ± 0.59%; with tumor [2] (10 mg/kg), −16.84 ± 1.26%. In series [3], the “fluorescence intensity at 590 nm” value is on record as “intense fluorescence”. Further, in series [4] (after 1 hour exposure), the “fluorescence intensity in cells” value is recorded as “increase in fluorescence intensity”. The “intracellular localization of fluorescence” value in series [4] (after 24 hours incubation) is “only accumulated in cell nuclei”. The “dose remained in the blood” value in series [5] was “almost none”.

As to “poly(ethylene glycol)poly(aspartate-hydrazone-adriamycin) [DOX-Micelle]”, the growth-inhibition effect entry in series [6] is listed as “gradually approach those of free ADR”. Besides, the “therapeutic window compared to standard doxorubicin administration” value with tumor [1] (based on treatment-to-control (T/C) ratio, ratio of ED50 to TD) is “broader therapeutic window”. For the same compound, the “Complete Cure” value in the series with tumor [1] (dose 5 mg/kg) is 0/6; with tumor [1] (dose 10 mg/kg), 0/6; in the series with tumor [1] (dose 20 mg/kg), 2/6; in the series with tumor [1] (dose 40 mg/kg), 3/6. Also, the “fluorescence intensity in cells” value in series [4] (after 1 hour exposure) is “no such increase was detected”; in series [4] (after 24 hours incubation), “considerable fluorescence change”. Besides, the “intracellular localization of fluorescence” value in series [4] (after 24 hours incubation) is on record as “dot-shaped within the cytoplasm”.
